Test results published in patent US9345700B2, “Compositions and methods useful for treating diseases” (Eutropics Pharmaceuticals, Inc., priority 2011, dated 2016).
“Also recorded” adds a separate entry of the source.

How the values were obtained:
SUDHL-10 = assay: In situ mitochondrial cytochrome c release assay, semi-permeabilized SUDHL-10; assay type: cell-based, human; conditions: 20 uM; BAX/BAK-deficient cell line
Source text: (§1) The on-target activity of compound II-19 was validated. Changes in mitochondrial integrity were observed utilizing anti-cytochrome c conjugated to Alexa488 (BD). When the mitochondria are intact, they retain cytochrome c and have bright, punctate staining with the antibody whereas cells with compromised mitochondrial integrity will lose cytochrome c and will not stain with the antibody. This can be observed by microscopy as well as measured by a shift in fluorescence on the FL1 channel of a flow cytometer.
(§2) The selective response of mitochondria in semi-permeabilized cell lines to the compounds was observed. The assay was adapted from (Campos et al. (2006) Cytometry Part A. 69 (A):515-523).
(§3) Suspension cell lines SUDHL10 and SUDHL6 were grown in RPMI, washed once in 1×PBS and re-suspended at a concentration of 2e6/ml in assay buffer with 0.0025% Digitonin. Assay buffer; 300 mM Trehalose, 10 mM HEPES-KOH pH 7.7, 80 mM KCl, 1 mM EGTA, 1 mM EDTA, 0.1% BSA, 5 mM Succinate. Cells are incubated with test and control compounds at 10^6 cells/treatment for 1 hour at room temperature. Samples are fixed with 4% formaldehyde in PBS for 20 minutes, washed once in PBS, and blocked with 2% FBS/0.5% TritonX-100 in PBS. Samples are re-suspended in blocking buffer with 1:250 anti-cytochrome c conjugated to Alexa488 (BD Cat#56028) for 1 hour at 4° C., washed once with blocking buffer and re-suspended in 200 ul PBS. Cytochrome c loss was measured by microscopy. At least 100 cells per treatment were counted and scored as positive for cytochrome c loss if they lacked staining. In both methods DMSO was calculated as 0% cytochrome c loss and the Bim response for DHL6 was used to determine 100% cytochrome c loss.

SUDHL-6 = assay: In situ mitochondrial cytochrome c release assay, semi-permeabilized SUDHL-6; assay type: cell-based, human; conditions: 20 uM; BAX/BAK-functional cell line
Source text: as §1, §2, §3

[1] = system: mitochondria from NCI 929; assay: BH3 profiling of mitochondria isolated from NCI 929; assay type: cell-based; conditions: isolated mitochondria of NCI 929
Source text: As another test of the ability of BH3 profiling to detect in vivo Mcl-1 dependence, the cancer cell line NCI 929 (obtained from ATCC) is examined. Mitochondria are isolated from this cell line and exposed to the panel of BH3 peptides in Table 1 and to compounds of Formula I or Formula II. MOMP is quantitated by JC-1 fluorescence and cytochrome c release is quantitated by ELISA as described in Examples 4 and 5. NCI 929 cells are sensitive to treatment with compounds of Formula I or Formula II in vitro. […] On the other hand, treatment of the mitochondria with compounds of Formula I or Formula II induces MOMP as measured by a decrease in the red JC-1 aggregate fluorescence and as measured by an increase in cytochrome c release. This provides support that compounds of formula identified Formula I or Formula II can substitute for Noxa in the mitochondrial BH3 profiling assay and that the mitochondrial response to these compounds is a powerful predictor of what cells are sensitive to Mcl-1 inhibiting drugs in vitro and in vivo.

Compound	release of cytochrome c in SUDHL-10 (SUDHL-10)	release of cytochrome c in SUDHL-6 (SUDHL-6)	mitochondrial response to BH3 peptide [1]
O=C(Nc1cccnc1)c1cc(-c2ccco2)nc2ccc(-c3ccc4scnc4c3)cc12 [Compound 18, 6-(benzo[d]thiazol-5-yl)-2-(furan-2-yl)-N-(pyridin-3-yl)quinoline-4-carboxamide]	lack of activity and not	activity; also recorded: cause release of cytochrome c	
O=C(Nc1ccccc1)c1cc(-c2ccco2)nc2ccc(-c3ccc4scnc4c3)cc12 [Compound 33, 6-(benzo[d]thiazol-5-yl)-2-(furan-2-yl)-N-phenylquinoline-4-carboxamide]	lack of activity and not	activity; also recorded: cause release of cytochrome c	
O=C(Nc1cccnc1)c1cc(-c2cnn(C3CCCCO3)c2)nc2ccc(-c3ccccc3)cc12 (stereo not drawn) [Compound 37, 6-phenyl-N-(pyridin-3-yl)-2-(1-(tetrahydro-2H-pyran-2-yl)-1H-pyrazol-4-yl)quinoline-4-carboxamide]	lack of activity and not	activity; also recorded: cause release of cytochrome c	
O=C(Nc1cccnc1)c1cc(-c2cn[nH]c2)nc2ccc(-c3ccccc3)cc12 [Compound 38, 6-phenyl-2-(1H-pyrazol-4-yl)-N-(pyridin-3-yl)quinoline-4-carboxamide]	lack of activity and not	activity; also recorded: cause release of cytochrome c	
Bad: Bcl-xL reactive BH3 domain peptide Bad from the Table 1 panel (LWAAQRYGRELRRMSDEFEGSFKGL)			lacking a response
